Experimental data as given in PubChem BioAssay (NCI).
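Dose response: 5 concentrations. Exposure: 48 h. Format: 96-well plates. Endpoint: linear interpolation; highest concentration if not reached. Here, GI50 denotes the concentration required for 50% inhibition of growth. TGI: total growth inhibition.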

Key:
Assay in all cases: NCI anticancer screen, dose series, 48 h
SN12C renal = system: SN12C renal
MCF7 breast = system: MCF7 breast
OVCAR-3 ovarian = system: OVCAR-3 ovarian
UACC-257 melanoma = system: UACC-257 melanoma
SK-OV-3 ovarian = system: SK-OV-3 ovarian
UO-31 renal = system: UO-31 renal
HT29 colon = system: HT29 colon
U251 CNS = system: U251 CNS
OVCAR-8 ovarian = system: OVCAR-8 ovarian
RPMI-8226 leukemia = system: RPMI-8226 leukemia

| SMILES | GI50 (SN12C renal) | TGI (SN12C renal) | GI50 (MCF7 breast) | TGI (MCF7 breast) | GI50 (OVCAR-3 ovarian) | TGI (OVCAR-3 ovarian) | GI50 (UACC-257 melanoma) | TGI (UACC-257 melanoma) | GI50 (SK-OV-3 ovarian) | TGI (SK-OV-3 ovarian) | GI50 (UO-31 renal) | TGI (UO-31 renal) | GI50 (HT29 colon) | TGI (HT29 colon) | GI50 (U251 CNS) | TGI (U251 CNS) | GI50 (OVCAR-8 ovarian) | TGI (OVCAR-8 ovarian) | GI50 (RPMI-8226 leukemia) | TGI (RPMI-8226 leukemia) |
| --- | --- | --- | --- | --- | --- | --- | --- | --- | --- | --- | --- | --- | --- | --- | --- | --- | --- | --- | --- | --- |
| N#CC1c2ccccc2C=CN1C(=O)N(c1ccccc1)c1ccccc1 (centres undefined) | 3 µM | 10.8 µM | 2.9 µM | 9.56 µM | 1.76 µM | 3.18 µM | 2.29 µM | 6.2 µM | 16.5 µM | 31.3 µM | 1.49 µM | 3.12 µM | 3.56 µM | 11.5 µM | 6.59 µM | 19.3 µM | 13.3 µM | 54.1 µM | 2.56 µM | 6.87 µM |
| C#CCOc1ccc2ncnc(Nc3ccc(NC(=O)C=C)cc3)c2c1 | 44 µM | > 100 µM | 2.98 µM | > 100 µM | 8.24 µM | > 100 µM | 56.9 µM | > 100 µM | > 100 µM | > 100 µM | 11.6 µM | 44.4 µM | 30.6 µM | > 100 µM | 79.3 µM | > 100 µM | 45.8 µM | > 100 µM | 2.63 µM | 7.44 µM |
| COc1ccc(N=N/C(C(=O)C(F)(F)F)=C(\O)c2ccc(Cl)cc2)cc1 | 16.6 µM | > 100 µM | 4.11 µM | 37.6 µM | 7.21 µM | 35.4 µM | 4.57 µM | 36.2 µM | 14.4 µM | 35.3 µM | 8.18 µM | 47.6 µM | 4.6 µM | 17.2 µM | 4.55 µM | 27.8 µM | 10.7 µM | 70.3 µM | 5.96 µM | 47.3 µM |
| CCc1nc(N)nc(N)c1-c1ccc(N2CCNCC2)cc1 |  | > 100 µM |  | > 94.3 µM |  | > 100 µM |  | > 86 µM |  | > 100 µM |  | > 100 µM |  | > 100 µM |  | > 100 µM |  | > 100 µM |  | > 90.5 µM |
| CC[n+]1c(/C=C/C=C2\N(C)c3ccccc3C2(C)C)sc2ccccc21 | 4.16 µM | 8 µM | 4.42 µM | 10.4 µM | 3.97 µM | 7.52 µM | 4.64 µM | 9.02 µM | 5.71 µM | 13.9 µM | 3.55 µM | 7.26 µM | 4.74 µM | 9.74 µM | 3.85 µM | 7.61 µM | 4.31 µM | 8.54 µM | 2.99 µM | 10.1 µM |
| CO[C@H]1C[C@@H]2CC[C@@H](C)[C@@](O)(O2)C(=O)C(=O)N2CCCC[C@H]2C(=O)O[C@H]([C@H](C)C[C@@H]2CC[C@@H](OCCO)[C@H](OC)C2)CC(=O)[C@H](C)C=C(C)[C@@H](O)[C@@H](OC)C(=O)[C@H](C)C[C@H](C)/C=C/C=C/C=C1C | 1.82 µM | 31.1 µM | < 0.01 µM | 14 µM | < 0.01 µM | 16.7 µM | 5.88 µM | 22.2 µM | < 0.01 µM | 20.5 µM | < 0.01 µM | 14.5 µM | 2.55 µM | 21.1 µM | < 0.0108 µM | 18.1 µM |  | 29.5 µM | < 0.01 µM | 14.1 µM |
